Structures can show the parent of a compound that is named as a salt. Some results are limits rather than exact numbers.

The series in a line: in vitro. Conditions: rat, gh3-tre-luc cells.

Turning to `COc1c(O)cc2c(c1O)[C@@H]1O[C@H](CO)[C@@H](O)[C@H](O)[C@H]1OC2=O` [Bergenin monohydrate], the CC50 – broadly, the concentration that lowers cell viability or growth by half – at 24 h (AC50 (uM) modified / 1000) is above 20 µM.
`OCCCCCCCCCCCCBr` [12-Bromo-1-dodecanol]: the CC50 at 24 h (AC50 (uM) modified / 1000) is above 90 µM.
With `N=C(N)NCCC[C@H](NC(=O)[C@@H]1CCCN1C(=O)[C@@H]1CSSCCC(=O)N[C@@H](Cc2ccc(O)cc2)C(=O)N[C@@H](Cc2ccccc2)C(=O)N[C@@H](CCC(N)=O)C(=O)N[C@@H](CC(N)=O)C(=O)N1)C(=O)NCC(N)=O` [Desmopressin acetate], for the setting “AC50 (uM) modified / 1000”, the cytotoxic concentration (CC50) at 24 h is above 50 µM.
On to `CCCCCCCCP(=O)(O)O` [Octylphosphonic acid], for which the cytotoxic concentration (CC50) at 24 h (AC50 (uM) modified / 1000, Tox21_110001=Tox21_302242, viability, 1 nM T3 present, 24 h) was above 90 µM.
`O=C1/C(=C/c2cccs2)CCC/C1=C\c1cccs1` [Tenylidone] came in with a cytotoxic concentration (CC50) at 24 h (AC50 (uM) modified / 1000) above 50 µM.
With `Nc1ccc(-c2ccc(N)c(Cl)c2)cc1Cl` [3,3'-Dichlorobenzidine dihydrochloride], the CC50 at 24 h stood at 76.5 µM (AC50 (uM) modified / 1000, Tox21_110001=Tox21_201906, viability, 1 nM T3 present, 24 h) and 20.3 µM (AC50 (uM) modified / 1000, Tox21_110001=Tox21_302894, viability, 1 nM T3 present, 24 h).
`C=CC(=C)C` [Isoprene] yielded a cytotoxic concentration (CC50) at 24 h (AC50 (uM) modified / 1000) above 90 µM.
On to `COc1ccccc1O` [2-Methoxyphenol], for which the CC50 at 24 h (AC50 (uM) modified / 1000) is above 90 µM.
Still for that read-out and setting: the result for `O=S(=O)(O)c1ccc(N=Nc2c(O)ccc3ccccc23)cc1` [C.I. Acid Orange 7] reads 44.3 µM.
On to `NNc1nnc(NN)c2ccccc12` [Dihydralazine], for which the half-maximal cytotoxic concentration (CC50) at 24 h (AC50 (uM) modified / 1000) is above 50 µM.
Still for that read-out and setting: the result for `C[C@@H]1C[C@H]2[C@@H]3C[C@H](F)C4=CC(=O)C(Cl)=C[C@]4(C)[C@@]3(F)[C@@H](O)C[C@]2(C)[C@@]1(O)C(=O)CO` [Halometasone hydrate] reads above 50 µM.
As to `O=C(CCl)C(Cl)Cl` [1,1,3-Trichloropropanone], the CC50 at 24 h (AC50 (uM) modified / 1000, Tox21_110001=Tox21_202795, viability, 1 nM T3 present, 24 h) is 13 µM.
As to `Cc1cccc(C)c1N(CCCc1cccnc1)C(=O)C(C)N` (stereo not drawn) [Ro 22-9194], the half-maximal cytotoxic concentration (CC50) at 24 h (AC50 (uM) modified / 1000) is above 50 µM.
On to `CC(C)=CCC/C(C)=C/COC=O` [(2E)-3,7-Dimethylocta-2,6-dien-1-yl formate], for which the CC50 at 24 h (AC50 (uM) modified / 1000) was above 90 µM.
On to `c1nc[nH]n1` [1,2,4-Triazole, sodium salt], for which the CC50 at 24 h (AC50 (uM) modified / 1000) was above 90 µM.
With `Nc1ccc(-c2ccc(F)cc2)cc1` [4'-Fluoro-4-aminodiphenyl], the CC50 at 24 h (AC50 (uM) modified / 1000) was above 90 µM.
Same read-out and setting: then `C1CCCC1` [Cyclopentane], with above 90 µM.
Compound `CCc1cnc(C2=NC(C)(C(C)C)C(=O)N2)c(C(=O)O)c1` (stereo not drawn) [Imazethapyr] registered a CC50 at 24 h (AC50 (uM) modified / 1000) above 90 µM.
As for `CCn1cc(C(=O)O)c(=O)c2cnc(N3CCNCC3)nc21` [Pipemidic acid], the CC50 at 24 h (AC50 (uM) modified / 1000) was above 20 µM.
`Cc1ccccc1N1CCN(CCc2nnc3n2CCCC3)CC1` [Dapiprazole hydrochloride] registered a 50% cytotoxic concentration (CC50) at 24 h (AC50 (uM) modified / 1000) above 50 µM.
`C=C1/C(=C\C=C2/CCC[C@]3(C)[C@@H]([C@H](C)/C=C/[C@@H](O)C4CC4)CC[C@@H]23)C[C@@H](O)C[C@@H]1O` [Calcipotriene] registered a half-maximal cytotoxic concentration (CC50) at 24 h (AC50 (uM) modified / 1000) of 34.7 µM.
Regarding `Cc1ccc(C(=O)O)cc1[N+](=O)[O-]` [4-Methyl-3-nitrobenzoic acid], the cytotoxic concentration (CC50) at 24 h (AC50 (uM) modified / 1000) is above 90 µM.
`Oc1noc2c1CCNC2` [Gaboxadol] displayed a CC50 at 24 h (AC50 (uM) modified / 1000) above 50 µM.
Still for that read-out and setting: then `O=C(CCCN1CCC2(CC1)C(=O)NCN2c1ccccc1)c1ccc(F)cc1` [Spiperone], with 14.1 µM; and `COc1ccc(S(=O)(=O)Nc2nnc(CC(C)C)s2)cc1` [Glysobuzole], with above 50 µM.
`CCCCCCn1cc[n+](C)c1` [1-Hexyl-3-methylimidazolium trifluoromethanesulfonate] displayed a half-maximal cytotoxic concentration (CC50) at 24 h (AC50 (uM) modified / 1000) above 90 µM.
For the setting “AC50 (uM) modified / 1000”, `Nc1ccc(Oc2ccc(Cl)cc2)cc1` [4-Chloro-4'-aminodiphenyl ether] showed a CC50 at 24 h above 90 µM.
Take `Cc1ccc(O)c2ncccc12` [Tiliquinol]: it took 4.67 µM to reach half-maximal cytotoxicity (AC50 (uM) modified / 1000) (CC50 at 24 h).
The same measure, in the same setting: the result for `O=C(N[C@H]1CN2CCC1CC2)c1ccc2c(c1)OCCO2` [PHA-00568487] reads above 90 µM.
For `OCC(Br)CBr` (stereo not drawn) [2,3-Dibromopropanol], the cytotoxic concentration (CC50) at 24 h (AC50 (uM) modified / 1000, Tox21_110001=Tox21_200709, viability, 1 nM T3 present, 24 h) was above 90 µM.
As for `O=C(O)c1ccco1` [2-Furancarboxylic acid], the CC50 at 24 h (AC50 (uM) modified / 1000) was above 90 µM.
Turning to `O=P(Oc1ccccc1)(Oc1ccccc1)Oc1ccccc1` [Triphenyl phosphate], the CC50 at 24 h (AC50 (uM) modified / 1000, Tox21_110001=Tox21_201511, viability, 1 nM T3 present, 24 h) was above 90 µM.
`CCNP(=S)(OC)O/C(C)=C/C(=O)OC(C)C` (stereo not drawn) [Propetamphos] gave a CC50 at 24 h (AC50 (uM) modified / 1000, Tox21_110001=Tox21_300863, viability, 1 nM T3 present, 24 h) above 90 µM.
`COc1cc(C(C)(C)C)c(O)c(C(C)(C)C)c1` [2,6-Di-tert-butyl-4-methoxyphenol] returned a CC50 at 24 h (AC50 (uM) modified / 1000) of 48.1 µM.
Regarding `CC(C)(C)C(=O)C(Oc1ccc(Cl)cc1)n1cncn1` (stereo not drawn) [Triadimefon], the CC50 at 24 h (AC50 (uM) modified / 1000) was above 90 µM.
Consider `Nc1ccccc1C(=O)Oc1ccc2ccccc2c1` [Naphthalen-2-yl 2-aminobenzoate], for which the CC50 at 24 h (AC50 (uM) modified / 1000, Tox21_110001=Tox21_302560, viability, 1 nM T3 present, 24 h) is above 90 µM.
`CC(C)OP(=O)(CP(=O)(OC(C)C)OC(C)C)OC(C)C` [Tetraisopropyl methylenediphosphonate] yielded a CC50 at 24 h (AC50 (uM) modified / 1000) above 90 µM.
`C=C(C)C(=O)OCCO` [2-Hydroxyethyl methacrylate] registered a CC50 at 24 h (AC50 (uM) modified / 1000) above 90 µM.
`CC(=O)OCC1=C(C(=O)O)N2C(=O)[C@@H](N)[C@H]2SC1` [7-Aminocephalosporanic acid] had a CC50 at 24 h (AC50 (uM) modified / 1000) above 20 µM.
`CCN(CC)CCNC(=O)c1cc(S(C)(=O)=O)ccc1OC` [Tiapride hydrochloride] displayed a CC50 at 24 h (AC50 (uM) modified / 1000) above 20 µM.
For the compound `C[C@@H](O)C[C@@H](C)O` [2,4-Pentanediol], under “AC50 (uM) modified / 1000”, the CC50 at 24 h was above 90 µM.
Compound `CC[N+]1(C)CCCC1` [1-Ethyl-1-methylpyrrolidinium hexafluorophosphate] showed a CC50 at 24 h (AC50 (uM) modified / 1000) above 90 µM.
On to `CC(C)C/C=C(/C=O)c1ccccc1` [5-Methyl-2-phenyl-2-hexenal], for which the half-maximal cytotoxic concentration (CC50) at 24 h (AC50 (uM) modified / 1000) was found to be 64.6 µM.
Compound `CCCCOC(=O)CCCCC(=O)OCCCC` [Dibutyl adipate] registered a CC50 at 24 h (AC50 (uM) modified / 1000) above 90 µM.
In turn, `O=C(O)C1(c2ccc3c(c2)OC[C@H](Cc2ccc(-c4ccccc4)cc2)[C@H]3O)CCCC1` [CP-105696] registered a CC50 at 24 h (AC50 (uM) modified / 1000) of 50.9 µM.
On the same count and under the same terms, the result for `CC(C)CN(C[C@@H](OP(=O)(O)O)[C@H](Cc1ccccc1)NC(=O)O[C@H]1CCOC1)S(=O)(=O)c1ccc(N)cc1` [Fosamprenavir calcium] reads above 50 µM.
Still for that read-out and setting: the result for `O=C(O)[C@@H]1[C@H]2C[C@H]3c4[nH]c5ccccc5c4CCN3C[C@@H]2CC[C@@H]1O` [Yohimbic acid monohydrate] reads above 20 µM.
`COc1cccc(C=O)c1` [3-Methoxybenzaldehyde] registered a 50% cytotoxic concentration (CC50) at 24 h (AC50 (uM) modified / 1000, Tox21_110001=Tox21_302136, viability, 1 nM T3 present, 24 h) above 90 µM.
For the compound `Clc1cc(Cl)c(Cl)c(Cl)c1` [1,2,3,5-Tetrachlorobenzene], the half-maximal cytotoxic concentration (CC50) at 24 h (AC50 (uM) modified / 1000) is above 90 µM.
For the setting “AC50 (uM) modified / 1000”, `CN(C)C(C)(C)CO` [2-(Dimethylamino)-2-methylpropan-1-ol] gave a CC50 at 24 h above 90 µM.
`COc1cc(/C=C2\CCC/C(=C\c3ccc(O)c(OC)c3)C2=O)ccc1O` [Cyclovalone] gave a half-maximal cytotoxic concentration (CC50) at 24 h (AC50 (uM) modified / 1000) of 7.98 µM.
Compound `CCCC=NO` [Butanal oxime] registered a 50% cytotoxic concentration (CC50) at 24 h (AC50 (uM) modified / 1000, Tox21_110001=Tox21_201786, viability, 1 nM T3 present, 24 h) above 90 µM.
Where the note is “AC50 (uM) modified / 1000”, `C=C(C)C(=O)OC1C[C@H]2CC[C@]1(C)C2(C)C` (stereo partly drawn) [Isobornyl methacrylate] came in with a half-maximal cytotoxic concentration (CC50) at 24 h above 90 µM.
On the same count and under the same terms, the result for `CCCCCC(N)=O` [Hexanamide] reads above 90 µM; that for `Cc1cc([N+](=O)[O-])ccc1N` [2-Methyl-4-nitroaniline], above 90 µM.
The same measure, in the same setting: the result for `NC1CCN(c2nc3c(cc2F)c(=O)c(C(=O)O)cn3-c2ccc(F)cc2F)C1` (stereo not drawn) [Tosufloxacin toluenesulfonic acid] reads above 50 µM.
Take `C=CCOCC(O)CS(=O)(=O)O` (stereo not drawn) [Sodium 3-(allyloxy)-2-hydroxypropanesulphonate]: the cytotoxic concentration (CC50) at 24 h (AC50 (uM) modified / 1000) was above 90 µM.
`CC(CO)(CO)C(=O)O` [3-Hydroxy-2-(hydroxymethyl)-2-methylpropanoic acid]: the cytotoxic concentration (CC50) at 24 h (AC50 (uM) modified / 1000) was above 90 µM.
On to `CCN(CC)CCC(=O)N1c2ccccc2Sc2ccc(C(F)(F)F)cc21` [Fluacizine], for which, under “AC50 (uM) modified / 1000”, the CC50 at 24 h worked out at 20.5 µM.
Same read-out and setting: the result for `C#CCN(C)[C@H](C)Cc1ccccc1` [Selegiline hydrochloride] reads above 50 µM.
On to `CCCCCCCCCCCCCCCCBr` [1-Bromohexadecane], for which the cytotoxic concentration (CC50) at 24 h (AC50 (uM) modified / 1000) is above 30 µM.
For the setting “AC50 (uM) modified / 1000”, `CC(=O)Nc1ccn(C2COC(COC(=O)c3ccccc3)O2)c(=O)n1` (stereo not drawn) [{4-[4-(Acetylamino)-2-oxopyrimidin-1(2H)-yl]-1,3-dioxolan-2-yl}methyl benzoate] yielded a CC50 at 24 h above 50 µM.
With `CCCCCCCCCCCCS` [1-Dodecanethiol], the half-maximal cytotoxic concentration (CC50) at 24 h (AC50 (uM) modified / 1000) was above 90 µM.
`c1ccc(C2(c3ccccc3)CC2C2=NCCN2)cc1` (stereo not drawn) [Cifenline succinate] gave a half-maximal cytotoxic concentration (CC50) at 24 h (AC50 (uM) modified / 1000) above 50 µM.
For the compound `N#CSCc1ccccc1` [Benzyl thiocyanate], for the setting “AC50 (uM) modified / 1000, Tox21_110001=Tox21_200015, viability, 1 nM T3 present, 24 h”, the CC50 at 24 h was above 90 µM.
Consider `O=S1(=O)OCC2C(CO1)C1(Cl)C(Cl)=C(Cl)C2(Cl)C1(Cl)Cl` (stereo not drawn) [Endosulfan sulfate], for which the cytotoxic concentration (CC50) at 24 h (AC50 (uM) modified / 1000, Tox21_110001=Tox21_300782, viability, 1 nM T3 present, 24 h) turned out to be 56.1 µM.
As for `CC(C)C(=O)c1c(C(C)C)nn2ccccc12` [Ibudilast], under “AC50 (uM) modified / 1000”, the CC50 at 24 h is above 50 µM.
In the case of `C#C[C@]1(O)CC[C@H]2[C@@H]3CCc4cc(OC)ccc4[C@H]3CC[C@@]21C` [Mestranol], the CC50 at 24 h (AC50 (uM) modified / 1000) was above 90 µM.
